The subject of assay [1] is PC-3. Set-up: method as in PMID 17541592. Particulars: 72 h, SRB method; read-out: Value previously reported (IC50) PC-3; cited from earlier work.
The next assay concerns PC-3 cell line. Kind of assay: MTT cytotoxicity assay, PC-3 cells. Format: cell-based, human. Particulars: prostate cancer cells, read-out: Half maximal inhibitory concentration (IC50) PC-3. On the procedure:
(§1) The human prostate cancer (PC-3 and LNCaP) and non-tumorigenic (PNT-2) cell lines were obtained from the ECCAC Culture Collections and supplied by Sigma-Aldrich Chemical S.A. (Sintra, Portugal). They were cultured as monolayers, at 37 °C, in a humidified atmosphere of 5% CO2. The cultures were maintained in RPMI-1640 culture medium, supplemented with 10% (v/v) heat-inactivated FBS and 1% (v/v) penicillin/streptomycin. The cells were subcultured at 80% confluence, using 0.05% trypsin-EDTA (1×) in PBS.
(§2) For all cell lines (PC-3, LNCaP and PNT-2), cell cultures were established in 96-well plates (100 µL/well) at a density of 3 × 10^4 cells/cm^2, and were allowed to attach for 24 h. Triplicates were treated for different incubation periods (three independent experiments) with a range of concentrations between 2 and 32 µM of the tested compounds (cisplatin and Pd2Spm). According to the population doubling time for all cell lines (ca. 24 h), 24, 48, and 72 h timepoints after drug administration were chosen.
(§3) In order to evaluate cell viability, the MTT assay was used. Briefly, at each time-point, the growth media was removed, cells were washed with PBS and MTT solution (2.5 mg/mL) was added to each well (100 µL). After 3 h of incubation at 37 °C, the formazan crystals were solubilized in DMSO (100 µL), and the absorbance was measured at 570 nm.
(§4) Cells viability data results are expressed as mean ± standard error of the mean (SEM) and compared with non-treated controls. Statistical analysis was carried out through one-way ANOVA followed by Tukey’s multiple comparison test. A p-value < 0.05 was considered statistically significant.
(In general: Tetrazolium dyes change colour on reduction, which living cells bring about.)

The subject of a further assay is LNCaP cell line. Kind of assay: MTT cytotoxicity assay, LNCaP cells. Format: cell-based, human. Particulars: prostate cancer cells, read-out: Half maximal inhibitory concentration (IC50) LNCaP. The method, then: as §1, §2, §3, §4
Assay [2] deals with PC-3. Also on record: method as in PMID 24366574. Particulars: 48 h, MTT method; read-out: Value previously reported (IC50) PC-3; cited from earlier work.
Another assay has as its system LNCaP. Set-up: method as in PMID 17541592. Particulars: 48 h, SRB method; read-out: Value previously reported (IC50) LNCaP; cited from earlier work. (Sulforhodamine B stains cellular protein and so reports cell mass.)
The test system of a further assay is PNT-2. Also on record: method as in PMID 34277574. Particulars: 96 h, MTT method; read-out: Value previously reported (IC50) PNT-2; cited from earlier work.
The subject of a further assay is PNT-2 cell line. Kind of assay: MTT cytotoxicity assay, PNT-2 cells. Format: cell-based, human. Particulars: prostate non-cancer cells, read-out: Half maximal inhibitory concentration (IC50) PNT-2. The method, then: as §1, §2
In order to evaluate cell viability, the MTT assay was used. […] After 3 h of incubation at 37 °C, the formazan crystals were solubilized in DMSO (100 µL), and the absorbance was measured at 570 nm.
Cells viability data results are expressed as mean ± standard error of the mean (SEM) and compared with non-treated controls. […]

Where two headings read alike, the source gives them in different places.

With `N.N.[Cl][Pt][Cl]` [Cisplatin, cis-dichlorodiammine platinum(II)], the IC50 in the assay on PC-3 [1] was 1 µM; in the assay with PC-3 cell line (24 h incubation), 25.6 µM; in the assay on PC-3 cell line (48 h incubation), 3 µM; in the assay on PC-3 cell line (72 h incubation) it was 0.7 µM; in the assay with LNCaP cell line (24 h incubation) it was 13.6 µM; in the assay on LNCaP cell line (48 h incubation), 7.3 µM. Also, the IC50 is 2.7 µM in the assay with LNCaP cell line (72 h incubation); 10.6 µM with PC-3 [2]; 3.7 µM with LNCaP; 8.5 µM in the assay on PNT-2; 5.2 µM in the assay with PNT-2 cell line (48 h incubation); 2.4 µM with PNT-2 cell line (72 h incubation).

(Values after PMC9916163, “Evaluation of the Cytotoxic Effect of Pd2Spm against Prostate Cancer through Vibrational Microspectroscopies” (International Journal of Molecular Sciences, 2023).)
